Measured values: patent US8097625B2, “Combination of sedative and a neurotransmitter modulator, and methods for improving sleep quality and treating depression” (priority 2003, dated 2012)

System: subjects with insomnia related to major depressive disorder
Assay: DREAMDD clinical study: subjective sleep and daytime function (IVRS sleep diary)
Type: in vivo, human
Settings: for Subjective Sleep Latency, Mean (SD) / Subjective Sleep Latency, Median / Subjective Total Sleep Time, Mean (SD) / Subjective Total Sleep Time, Median / Subjective Wake Time After Sleep Onset (WASO), Mean (SD) / Subjective Wake Time After Sleep Onset (WASO), Median: 3 mg nightly + fluoxetine, ITT
Description: Depression Response to Eszopiclone in Adults With Major Depressive Disorder (DREAMDD): A Randomized, Double-Blind, Placebo-Controlled, Parallel-Group, 8-Week, Safety and Efficacy Study of Eszopiclone 3 mg Compared to Placebo in Subjects with Insomnia Related to Major Depressive Disorder
This study was a double-blind randomized, placebo-controlled, parallel group study. […] All subjects must satisfy DSM-IV criteria for insomnia related to major depression.
In addition, subjects were randomized at Visit 3 (end of baseline) to treatment with one of the following nightly (at bedtime): eszopiclone (3 mg) or matching placebo.
Primary Analysis: The primary analysis was conducted using the ITT population for the primary efficacy variable, mean WASO during the first week of double-blind medication. This endpoint was computed by averaging the daily WASO values obtained via IVRS from Visit 3 to Visit 4. The analysis was conducted using an analysis of variance model (ANOVA) with treatment and site as fixed effects. The analysis was performed on rank-transformed data, using the SAS MIXED procedure. The cumulative distribution function by treatment was plotted.
Other Secondary Analyses: Analysis of the secondary subjective sleep parameters, the 1, 2, 3, 4, 6, and 8 week post-randomization and double-blind averages of WASO (except week 1 average, which is the primary efficacy endpoint), TST, SL, mean number of awakenings, depth and quality of sleep, daytime alertness, ability to concentrate, physical well-being and ability to function was conducted on rank-transformed data using the same method as for the primary analysis.
Sleep Diary Test: Patients are to call between 6 a.m. and 10 a.m. and answer the following questions. 1) Did you take study medication last night? 2) What time did you go to bed to go to sleep last night? 3) Did you fall asleep last night? (If No, go to question 10) 4) How long did it take you to fall asleep last night? Hours+Minutes? 5) Last night, did you wake up during the night, after falling asleep? 5a) How many times, did you wake up after falling asleep? 5b) After falling asleep for the first time, how much total time did you spend awake during the night? Hours+Minutes? 6) How long did you sleep last night? Hours+Minutes? 7) What time did you get out of bed to rise for the day? 8) What number best describes the quality of your sleep last night? (0=poor and 10=excellent) 9) How would you describe the depth of your sleep last night? (0=very light and 10=very deep) 10) What number best describes how you generally felt yesterday during the day? (0=very sleepy and 10=wide awake and alert) 11) What number best describes your ability to concentrate or think clearly during the day yesterday (0=poor, 10=excellent) 12) What number best describes your sense of physical well being yesterday? (0=poor, 10=excellent) 13) How would you describe your ability to function during the day yesterday? (0=poor and 10=excellent)
Methods: Patients (n=545) met DSM-IV criteria for MDD and insomnia, including reported sleep latency (SL)≧30 min (median 73 min), wake time after sleep onset (WASO) ≧45 min (median 90 min), and total sleep time (TST)≦6.5h (median 294 min). All patients received fluoxetine QAM, and were randomly assigned to double-blind treatment with eszopiclone 3 mg or placebo QHS for 8 weeks. Subjective sleep and daytime function were assessed weekly.

[1] = each treatment week, p<0.03, 3 mg QHS + fluoxetine QAM, 8 weeks

For `CN1CCN(C(=O)OC2c3nccnc3C(=O)N2c2ccc(Cl)cn2)CC1` (single isomer, unassigned; (+)) [Eszopiclone, (+) 6-(5-chloro-2-pyridinyl)-6,7-dihydro-7-oxo-5H-pyrrolo[3,4b]pyrazin-5-yl 4-methylpiperazine-1-carboxylate], the “Subjective Sleep Latency, Mean (SD)” value (Double-Blind Average) was 53.0 (52.6) Minutes, the “Subjective Sleep Latency, Median” value (Double-Blind Average) was 39.3 min and the “Subjective Total Sleep Time, Mean (SD)” value (Double-Blind Average) was 395.5 (66.9) Minutes. For the same compound, the “Subjective Total Sleep Time, Median” value (Double-Blind Average) was 400.0 min, the “Subjective Wake Time After Sleep Onset (WASO), Mean (SD)” value (Double-Blind Average) was 72.6 (58.7) Minutes and the “Subjective Wake Time After Sleep Onset (WASO), Median” value (Double-Blind Average) was 57.4 min. For the same compound, the “Subjective Sleep Latency, Mean (SD)” value (Week 1) was 62.6 (61.0) Minutes, the “Subjective Sleep Latency, Median” value (Week 1) was 43.3 min and the “Subjective Total Sleep Time, Mean (SD)” value (Week 1) was 375.9 (76.5) Minutes. The “Subjective Total Sleep Time, Median” value (Week 1) was 380.0 min, the “Subjective Sleep Latency, Mean (SD)” value (Week 2) was 45.0 (52.2) Minutes and the “Subjective Sleep Latency, Median” value (Week 2) was 30.0 min. The “Subjective Total Sleep Time, Mean (SD)” value (Week 2) was 393.6 (103.0) Minutes, the “Subjective Total Sleep Time, Median” value (Week 2) was 397.5 min and the “Subjective Sleep Latency, Mean (SD)” value (Week 3) was 54.1 (100.9) Minutes. For the same compound, the “Subjective Sleep Latency, Median” value (Week 3) was 25.0 min, the “Subjective Total Sleep Time, Mean (SD)” value (Week 3) was 397.3 (88.1) Minutes and the “Subjective Total Sleep Time, Median” value (Week 3) was 405.0 min. For the same compound, the “Subjective Sleep Latency, Mean (SD)” value (Week 4) was 40.5 (50.5) Minutes, the “Subjective Sleep Latency, Median” value (Week 4) was 24.2 min and the “Subjective Total Sleep Time, Mean (SD)” value (Week 4) was 395.6 (87.3) Minutes. The “Subjective Total Sleep Time, Median” value (Week 4) was 390.0 min, the “Subjective Wake Time After Sleep Onset (WASO), Mean (SD)” value (Week 4) was 71.4 (80.3) Minutes and the “Subjective Wake Time After Sleep Onset (WASO), Median” value (Week 4) was 42.5 min. The “Subjective Sleep Latency, Mean (SD)” value (Week 6) was 43.8 (77.3) Minutes, the “Subjective Sleep Latency, Median” value (Week 6) was 20.0 min and the “Subjective Total Sleep Time, Mean (SD)” value (Week 6) was 408.5 (84.3) Minutes. For the same compound, the “Subjective Total Sleep Time, Median” value (Week 6) was 420.0 min, the “Subjective Wake Time After Sleep Onset (WASO), Mean (SD)” value (Week 6) was 76.5 (88.1) Minutes and the “Subjective Wake Time After Sleep Onset (WASO), Median” value (Week 6) was 46.3 min. The “Subjective Sleep Latency, Mean (SD)” value (Week 8) was 42.4 (42.3) Minutes, the “Subjective Sleep Latency, Median” value (Week 8) was 30.0 min and the “Subjective Total Sleep Time, Mean (SD)” value (Week 8) was 405.9 (80.6) Minutes. For the same compound, the “Subjective Total Sleep Time, Median” value (Week 8) was 411.4 min, the “Subjective Wake Time After Sleep Onset (WASO), Mean (SD)” value (Week 8) was 63.8 (74.1) Minutes and the “Subjective Wake Time After Sleep Onset (WASO), Median” value (Week 8) was 43.1 min. The “WASO compared to placebo” value (Weeks 1, 3-5, and 7-8, p<0.04, 3 mg QHS + fluoxetine QAM) was “significantly lower”, the “ratings in sleep quality and depth compared to placebo” value (across the treatment period, p<0.005, 3 mg QHS + fluoxetine QAM) was “higher ratings” and the “sleep latency (SL) compared to placebo” value [1] was “significantly lower”. For the same compound, the “total sleep time (TST) compared to placebo” value [1] was “greater”, the improvement in sleep (patients with depression-related secondary insomnia, co-administration with fluoxetine) was “rapid and sustained improvement in sleep” and the “ratings of daytime alertness, ability to concentrate, and well-being compared to placebo” value (p≦0.02, 3 mg QHS + fluoxetine QAM) was “higher ratings”.
